# Measured values published in patent US11478496B2, “Treatments of prostate cancer” (THE FLORIDA INTERNATIONAL UNIVERSITY BOARD OF TRUSTEES, priority 2020, dated 2022).
# Experiments:
# [1] = tested on: LAPC4 xenograft
# Text: Human prostate cancer cell line LAPC4 is used to implant into immunocompromised NOD scid male mice. Once tumor sizes reach 0.5 cm^3, the mice are separated into two groups. […] At the end of the 4-week treatment, mice are euthanized. Their tumors are excised and weighed. Tumors, samples of adjacent nonmalignant tissues, and prostates are collected for comparative analysis.
# A portion of the tumor is used for RNA-Seq (RNA sequencing) analysis to reveal the presence and quantity of the entire set of RNA present in these cells.
# These measurements are performed using a fluorescence-based in situ DNA damage and repair assay.
# [2] = molecular target: FEN1 (Homo sapiens, UniProt P39748); experiment: FEN1 activity; assay type: biochemical
# FEN1, sequence (P39748 whole entry): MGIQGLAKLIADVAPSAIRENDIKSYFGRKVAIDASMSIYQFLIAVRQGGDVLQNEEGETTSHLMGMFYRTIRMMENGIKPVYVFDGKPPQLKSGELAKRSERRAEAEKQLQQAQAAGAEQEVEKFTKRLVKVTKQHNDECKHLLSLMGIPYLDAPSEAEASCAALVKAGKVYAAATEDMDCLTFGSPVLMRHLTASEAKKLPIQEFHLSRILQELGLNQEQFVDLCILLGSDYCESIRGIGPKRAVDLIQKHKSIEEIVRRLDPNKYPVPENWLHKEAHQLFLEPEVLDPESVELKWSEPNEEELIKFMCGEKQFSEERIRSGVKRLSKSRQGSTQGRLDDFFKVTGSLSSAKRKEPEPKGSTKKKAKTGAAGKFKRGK
# Protocol: 10 μM hit compounds were incubated with 10 nM pol β, 10 nM FEN1 and 20 nM LIG I in BER reaction buffer containing 50 mM Tris-HCl (pH 7.5), 50 mM KCl, 0.1 mM EDTA, 0.1 mg/ml bovine serum albumin, and 0.01% Nonidet P-40 in the presence of 5 mM Mg^2+ and 2 mM ATP. The compounds were initially preincubated with a BER enzyme at varying concentrations for 1 h with rotation. This was followed by the addition of 25 nM ^32P-labeled substrate containing an abasic site, which was precut with 25 or 50 nM APEI. The reaction mixture (20 μL) was incubated at 37° C. for 30 min, and the reaction was terminated by 50 mM EDTA. Substrates, products, and unrepaired BER intermediates were separated by 15% urea-denaturing sequencing gel and detected by a Pharos FX Plus PhosphorImager (Bio-Rad, Hercules, Calif.).
# [3] = tested on: LNCaP cells; experiment: MTT viability/toxicity assay, LNCaP; assay type: cell-based; settings: 48 h
# Protocol: Cells were seeded in a 96 well plate at 1×10^4 cells/well and allowed to adhere overnight in the presence of FBS or CSS. The following day treatment was added to the wells and the plates were incubated for 24 h or 48 h. After incubation, 50 μL of MTT (2 mg/mL) was added to each well and incubated in the dark for 4 h. After incubation 150 μL of the media/MTT solution was removed and 100 μL of DMSO was added to each well and incubated for 15 min. Absorbance at 570 nm was measured using a ClarioStar Plate Reader (BMG LabTech, Ortenburg, Germany).
# [4] = tested on: RWPE1 cells; experiment: Cell Titer Glo cell viability assay, RWPE1; assay type: cell-based; settings: 10 μM; after 24 h and 48 h; serum free medium with EGF and BPE
# Protocol: FIGS. 4A-4B show cellular toxicity of lead compounds in nonmalignant androgen independent prostate-derived cell lines. (4A) PNT1A cells were plated in a 96-well plate at 1×10^4 cell/well in the presence of FBS or CSS. Cells were allowed to attach overnight and were treated with either vehicle (DMSO) or 10 μM of indicated compound. At 24 and 48 h, cellular viability was compared using the Cell Titer Glo Luminescent Cell Viability kit. (4B) RWPE1 cells were plated in a 96-well plate at 1×10^4 cells/well using the specified serum free media. Cells were allowed to attach overnight and treated with 10 μM of indicated compound.
# (§1) Cell viability was determined using the Cell Titer Glo Cell Viability Assay (Promega, Madison, Wis.), as recommended by manufacturer. All experiments were performed in quadruplicate.
# Next, whether the same concentration of compounds decreases the viability of the AR negative and nonmalignant prostate derived cells, PNT1A and RWPE1, was tested.
# [5] = tested on: LNCaP cells; experiment: Cell Titer Glo cell viability assay, LNCaP; assay type: cell-based; settings: 10 μM; androgen depleted conditions (CSS); 24 and 48 h
# Protocol: (§2) FIGS. 3A-3B show cellular toxicity of the lead compounds in androgen-dependent prostate cancer cell lines. (3A) LNCaP cells were plated in a 96-well plate at 1×10^4 cells/well in the presence of Fetal Bovine Serum (FBS) or Charcoal stripped Serum (CSS). Cells were allowed to attach overnight and were treated with either vehicle (DMSO) or 10 μM of indicated compound. At 24 and 48 h cellular viability was compared using the Cell Titer Glo Luminescent Cell Viability kit. (3B) LAPC4 cells were plated in a 96-well plate at a density of 1×10^4 cells/well in the presence of FBS or CSS. Cells were allowed to attach overnight and treated with 10 μM of indicated compound.
# as §1
# [6] = molecular target: pol β (Homo sapiens, UniProt P06746); experiment: Pol β DNA synthesis on 1-nt gap substrate; assay type: biochemical
# Protocol: (§3) Lane 1 represents the substrate only. Lanes 2 and 3 indicates the reaction mixture with 5 nM LIG I in the absence and presence of DMSO. […] The substrate was ^32P-labeled at the 5′-end of the upstream strand and is illustrated above the gel. The experiments were repeated at least three times. Representative gel is illustrated. Quantification of the results is shown below the gel. Two-way ANOVA with Tukey's multiple comparison posttests was used to determine statistically significant differences. * signifies p<0.05 compared to the control reaction with LIG I and DMSO. […] Lane 1 represents the substrate only. Lanes 2 and 3 indicates the reaction mixture with 5 nM pol β in the absence and presence of DMSO. […] The substrate was ^32P-labeled at the 5′-end of the upstream strand and is illustrated above the gel. The experiments were repeated at least three times. Quantification of the results are shown below the gel. Two-way ANOVA with Tukey's multiple comparison posttests was used to determine statistical significance. * signifies p<0.05 compared to the control reaction with pol β and DMSO.
# (§4) BER reactions were terminated by adding 2× stopping buffer containing 95% formamide and 10 mM EDTA. Reaction mixtures were then denatured at 95° C. for 5 min and separated by 15% urea-denaturing polyacrylamide gel electrophoresis. Substrates and products were detected and analyzed using a Pharos FX Plus PhosphorImager (Bio-Rad, Hercules, Calif.).
# [7] = molecular target: LIG I (Homo sapiens, UniProt P18858); experiment: LIG I activity on nicked substrate; assay type: biochemical; settings: 5 nM LIG I
# LIG I, sequence (P18858 whole entry): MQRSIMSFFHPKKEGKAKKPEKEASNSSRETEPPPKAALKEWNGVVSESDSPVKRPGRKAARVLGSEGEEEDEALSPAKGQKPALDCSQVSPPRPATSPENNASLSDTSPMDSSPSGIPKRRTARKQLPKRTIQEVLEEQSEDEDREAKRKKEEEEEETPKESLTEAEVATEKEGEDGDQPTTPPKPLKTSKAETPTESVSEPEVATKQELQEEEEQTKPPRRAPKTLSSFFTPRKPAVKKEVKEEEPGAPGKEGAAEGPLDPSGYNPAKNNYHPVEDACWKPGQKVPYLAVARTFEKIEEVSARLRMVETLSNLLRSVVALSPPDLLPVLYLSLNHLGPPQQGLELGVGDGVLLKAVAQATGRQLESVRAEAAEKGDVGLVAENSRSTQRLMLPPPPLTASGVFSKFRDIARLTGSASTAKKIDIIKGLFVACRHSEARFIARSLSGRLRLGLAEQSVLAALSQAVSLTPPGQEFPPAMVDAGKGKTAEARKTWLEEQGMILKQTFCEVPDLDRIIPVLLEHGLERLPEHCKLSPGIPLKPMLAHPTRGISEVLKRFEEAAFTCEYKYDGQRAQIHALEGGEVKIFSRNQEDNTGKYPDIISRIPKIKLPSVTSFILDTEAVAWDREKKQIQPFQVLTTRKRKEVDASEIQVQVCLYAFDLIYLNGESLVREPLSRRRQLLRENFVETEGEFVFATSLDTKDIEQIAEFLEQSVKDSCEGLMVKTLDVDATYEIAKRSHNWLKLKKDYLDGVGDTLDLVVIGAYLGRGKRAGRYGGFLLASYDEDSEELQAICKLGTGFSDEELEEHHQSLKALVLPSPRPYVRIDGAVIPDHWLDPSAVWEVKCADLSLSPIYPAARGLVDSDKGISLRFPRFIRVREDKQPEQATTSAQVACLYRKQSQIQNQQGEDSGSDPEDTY
# Protocol: as §3, §4
# [8] = tested on: LAPC4 cells; experiment: RTCA impedance proliferation assay, LAPC4; assay type: cell-based, human; settings: 10 μM; medium with both FBS and CSS
# Protocol: (5A-5B) LNCaP cells were plated onto xCelligence E-plates at 10^4 cells per well in medium supplemented with either 10% FBS (5A) or 10% CSS (5B) serum. Cells attached overnight and were treated with vehicle (DMSO) or 10 μM of the indicated compounds. (5C-5D) LAPC4 cells were plated at 5×10^4 cells per well onto xCelligence E-plates in media supplemented with FBS (5C) or CSS (5D) and allowed to attach overnight. Treatment was conducted as in (5A-5B) and impedance measured continuously in 30 min intervals. […] Proliferation assays were done using Roche DP Real Time Cell Analyzer (RTCA), as described by the manufacturer. Background impedance was established after incubating E-plates (Acea Biosciences, San Diego, Calif.) with 50 μL media at room temperature for 30 min and placed in RTCA. Cells were then seeded in 100 μL per well. Cells attached overnight and then treated. During attachment stage and after treatment impedance was measured every 30 min. Impedance is represented by cell index and is calculated as follows: CI=(Zi−Zo)/15Ω where Zi is impedance at an individual time point, and Zo is the background impedance. Average CI was calculated from four wells per treatment at each time point and normalized to the impedance immediately after compound addition.
# [9] = tested on: LAPC4 cells; experiment: Cell Titer Glo cell viability assay, LAPC4; assay type: cell-based, human; settings: 10 μM; androgen depleted conditions (CSS); 24 and 48 h
# Protocol: as §2, §1
smiles,measurement,setting,value
C[C@@H]1C/C=C/C=C/C=C/C=C/[C@H](O[C@@H]2O[C@H](C)[C@@H](O)[C@H](N)[C@@H]2O)C[C@@H]2O[C@](O)(C[C@@H](O)C[C@H]3O[C@@H]3/C=C/C(=O)O1)C[C@H](O)[C@H]2C(=O)O [natamycin],toxicity for prostate cancer cells in a mouse model,"[1]; LAPC4 xenograft, intravenously, 4 weeks",specific toxicity for prostate cancer cells
same,tolerability by noncancerous tissues in a mouse model,"[1]; mouse, in vivo, iv",well-tolerated
same,inhibitory effect on FEN1,[2],No inhibitory effect
same,concentration reducing viability of LNCaP cells,[3]; CSS medium,≥ 0.1 µM
same,concentration required to reduce LNCaP viability,[3]; medium supplemented with FBS,≥ 2.5 µM
same,RWPE1 cell viability,[4],significantly decreased
same,toxicity (cell viability) in LNCaP,[5],highest toxicity
same,pol β 1 nt gap-filling synthesis,"[6]; FIG. 8B, lanes 5-7",did not inhibit
same,pol β strand-displacement synthesis,[6]; at 2 nM-5 nM,significant inhibitory effect
same,reduction of pol β activity,"[6]; at 10 (unit not given) natamycin, 5 nM pol β",3 fold
same,reduction of the activity of LIG I,[7]; 0.5 μM natamycin,3.5 fold
same,decrease of the activity of LIG I,[7]; 5 μM natamycin,14 fold
same,reduction of the activity of LIG I,[7]; at 1 (unit not given) natamycin,3.5 fold
same,LAPC4 cellular proliferation and attachment,[8],abolished
same,toxicity (cell viability) in LAPC4,[9],highest toxicity
